Values joined by “and” are separate entries in the source; they are usually repeats but may differ in a detail not shown here. Equal entries are not always repeated. “Also recorded” adds a separate entry of the source.
What was measured:
[1] = target: T1, HepI R120A (Escherichia coli, UniProt P24173, R120A); assay: HepI inhibition, ADP/NADH coupled assay (R120A mutant); format: biochemical, E. coli K12
T1 construct: made in house; host or cells: E. coli One Shot BL-21-AI (stated for HepI in general)
Description: (§1) As previously reported[11],[14],[15], an ADP/NADH coupled assay was used to monitor HepI activity by monitoring the absorbance change at 340 nm at 37 °C on a Cary Bio 100 UV–Vis Spectrometer. Under normal conditions, the assay buffer was composed of 50 mM HEPES, 50 mM KCl, 10 mM MgCl2, pH 7.5. The coupled enzyme reaction additionally contained 100 μM phosphoenolpyruvate, 100 μM NADH, 100 μM dithiothreitol (DTT) and 0.05 U/μL of both pyruvate kinase and lactate dehydrogenase. 100 μM ADPH was used when ODLA concentration was varied and 100 μM ODLA was used when ADPH was varied. Once a stable baseline was established (~ 5 min), the reaction was initiated by addition of HepI to a final concentration of 50 nM or 100 nM (for high and lower substrate concentrations respectively) and all reported reaction rates are after background subtraction. When running 12 samples at once, plastic cuvette stirs and a repeat pipettor was used to inject 200 μL enzyme. Inhibition of HepI was monitored using the same ADP/NADH coupled assay, all conditions of the assay were the same as previously described unless otherwise stated. Ki values for each of the compounds were determined by varying compound final concentration from 100 μm to 10 nm, and a final concentration of 10 μM ODLA. Competition assays against ADPH were done with excess ODLA (100 μM) and varying ADPH from 2–0.25 μM. Competition assays against ODLA were done with excess ADPH (100 μM) and varying ODLA from 2–0.25 μM. Reactions were started with addition of enzyme and inhibitor was varied from 30–0.01 μM. Kinetics were fit to Lineweaver-Burke (Eq. 1), competitive (Eq. 2), non-competitive (Eq. 3), mixed (Eq. 4), Dixon (Eq. 5), or Cornish-Bowden (Eq. 6) models. All fitting and plotting was done through MATLAB R2018A.1 1/V1/[S]=KM/Vmax[S]+1/Vmax 2 V[S]=Vmax[S]/KM1+[I]/Ki+[S] 3 V[S]=Vmax[S]/1+([I]/Ki)/KM+[S] 4 V[S]=Vmax[S]/KM(1+[I]/Ki)+[S](1+[I]/αKi) 5 1/V[I]=KM1+I/Ki+[S]1+I/αKi/Vmax[S] 6 [S]/V[I]=KM1+I/Ki+[S]1+I/αKi/Vmax

[2] = test system: capsular polysaccharide (cps) band of E. coli K12 total lipid extract; assay: Capsular polysaccharide band density on silver-stained gels; format: cell-based
Description: (§2) The assays were prepared by plating E. coli K12 onto an LB-agar plate and grown overnight (12–18 h)[60]. A colony forming unit was chosen to inoculate 10 mL of fresh LB media in a tightly capped 15 mL falcon tube and placed in an incubator (no agitation) at 37 °C for exactly 24 h to increase the number of viable cells for inoculation of the plate and thusly reproducibility in highly variable growth patterns. A 96-well plate was then filled with a variety of inhibitor concentrations taken from stock solutions made up in ultra-pure water allowing for one row to remain free of the inhibitor. Each inhibitor concentration was given 3-wells to ensure a triplicate of data is collected at once. With the same fresh media used to make the overnight culture, the overnight growths were added to the plate in a 1:1000 dilution (total volume 200 uL) and the plate sealed with clear adhesive plastic sealant. One row has been designated for uncultured media to be used for pre-blanking measurements and to ensure that the media isn’t growing spontaneously.
As previously established, lipid extraction occurs through lysis of surface polysaccharides with a lysis buffer containing 1% SDS, 20% glycerol, 100 mM Tris–HCl and 0.04% bromophenol blue at a pH 6.8[61]. The cellular concentrations from each well were determined using the last collected OD600 corrected using Eq. (8), centrifuged and resuspended in the correct volume of lysis buffer to obtain 4 × 10^8 cells/100 µL solution. Addition of Proteinase K at 1 mg/mL concentration was incubated for 1 h at 37 °C. These samples were then loaded onto a 15% separating, 6% stacking SDS–polyacrylamide gel (recipes received from https://www.bio-rad.com/) in a 19:1 acrylamide to bis-acrylamide ratio and run with a voltage gradient from 50–150 V. The gels were then stained using the protocol described previously with no modifications[62] and imaged using a scanner.
Relative LPS band density was determined using analysis methods provided by ImageJ software. The band pixel density were analyzed relative to a purified sample of heptosylated O-deacylated Lipid A at 100 nM. The plot was generated of relative band density vs. concentration of inhibitor[63].

[3] = target: T2, Heptosyltransferase I (HepI) WT (Escherichia coli, UniProt P24173); assay: HepI inhibition, ADP/NADH coupled assay (wild type); format: biochemical, E. coli K12; details: for kcat: HepI WT in presence of inhibitor; for Ki: 10 μM ODLA, inhibitor varied; for Type of inhibition with ODLA: excess ADPH, ODLA varied, Lineweaver–Burk, Dixon, Cornish-Bowden; for Type of inhibition against ADPH: excess ODLA, ADPH varied; for ΔG (kcal/mol) Exp: Gibbs equation with Ki as equilibrium constant
T2 construct: made in house; host or cells: E. coli One Shot BL-21-AI
Description: as §1

[4] = test system: E. coli K12; assay: Growth challenge assay, 96-well plate; format: cell-based; details: for Inflection point in cell viability: E. coli K12, growth rate, Fig. 9; for Effect on growth of E. coli K12: increasing concentrations, 18-h period
Description: as §2
An experimental protocol was created using the Softmax Pro® software for a Molecular Devices Spectramax M5 plate reader. The parameters have been selected such that it collects pre-blanked absorbance readings at 600 nm wavelengths every 30 min at 37 °C with shaking every 10 min at 400 s intervals for 18 h total. Absorbance values were corrected for path length using the lateral reading path correction (8) and are plotted overtime to establish a growth curve.8 l=4×V/π×d^2 l = path length from Beer’s law ( A=εlc ), V = volume (cm^3), d = diameter of well (cm).
Data from the growth assay were analyzed using MATLAB R2018A. The derivative of the curve was calculated and the maximum rate as determined by the derivative was reported as the growth rate for that condition.

[5] = target: T3, HepI R63A (Escherichia coli, UniProt P24173, R63A); assay: HepI inhibition, ADP/NADH coupled assay (R63A mutant); format: biochemical, E. coli K12
T3 construct: made in house; host or cells: E. coli One Shot BL-21-AI (stated for HepI in general)
Description: as §1

[6] = target: T4, HepI R61A (Escherichia coli, UniProt P24173, R61A); assay: HepI inhibition, ADP/NADH coupled assay (R61A mutant); format: biochemical, E. coli K12
T4 construct: made in house; host or cells: E. coli One Shot BL-21-AI (stated for HepI in general)
Description: as §1

T3 sequence (P24173 whole entry R63A): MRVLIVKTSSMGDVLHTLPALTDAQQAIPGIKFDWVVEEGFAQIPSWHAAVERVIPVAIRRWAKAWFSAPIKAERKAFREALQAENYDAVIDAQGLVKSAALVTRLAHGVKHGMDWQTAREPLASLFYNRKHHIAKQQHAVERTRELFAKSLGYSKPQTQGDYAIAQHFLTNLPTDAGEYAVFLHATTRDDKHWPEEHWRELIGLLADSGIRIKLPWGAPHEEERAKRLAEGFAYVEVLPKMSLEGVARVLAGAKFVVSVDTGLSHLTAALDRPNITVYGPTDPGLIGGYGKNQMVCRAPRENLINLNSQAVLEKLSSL
T4 sequence (P24173 whole entry R61A): as the sequence (P24173 whole entry R63A) above, with R61A, A63R counted along it
T2 sequence (P24173 whole entry): as the sequence (P24173 whole entry R63A) above, with A63R counted along it
T1 sequence (P24173 whole entry R120A): as the sequence (P24173 whole entry R63A) above, with A63R, R120A counted along it

## NC[C@H]1O[C@H](O[C@H]2[C@H](O)[C@@H](O[C@H]3O[C@H](CO)[C@@H](O)[C@H](N)[C@H]3O)[C@H](N)C[C@@H]2N)[C@H](N)C[C@@H]1O [Tobramycin]
[1]
  Ki: 422 ± 186 nM
[1]; Arg120Ala relative to WT
  ΔΔG (kcal/mol) Exp: -0.6 ± 0.2 kcal/mol
[1]; Arg120Ala, from Ki
  ΔG (kcal/mol) Exp: -8.7 ± 0.2 kcal/mol
[1]; HepI R120A vs WT
  Ki relative to WT: ~ twofold tighter; also recorded: lowering of the inhibition constant
[2]; 4 ng/mL tobramycin, relative to 0 ng/mL = 1
  Relative pixel density from cps band: 1.752
[2]; 4.5 ng/mL tobramycin
  Relative pixel density from cps band: 4.293
[2]; 5 ng/mL tobramycin
  Relative pixel density from cps band: 7.121
[2]; 5.5 ng/mL tobramycin
  Relative pixel density from cps band: 5.786
[2]; 6 ng/mL tobramycin
  Relative pixel density from cps band: 3.692
[2]; 6.5 ng/mL tobramycin
  Relative pixel density from cps band: 2.319
[2]; 7 ng/mL tobramycin
  Relative pixel density from cps band: 1.163
[2]; 7.5 ng/mL tobramycin
  Relative pixel density from cps band: 1.421
[2]; 8 ng/mL tobramycin
  Relative pixel density from cps band: 1.641
[2]; 9 ng/mL tobramycin
  Relative pixel density from cps band: 1.606
[3]; HepI WT
  α value, mixed model of inhibition with ODLA: greater than one
  Ki: 1100 nM and 1130 nM
  Type of inhibition with ODLA: Mixed competitive
  Type of inhibition against ADPH: uncompetitive
  ΔG (kcal/mol) Exp: -8.1 ± 0.1 kcal/mol
[3]
  kcat: 0.15 ± 0.005 s⁻¹
[4]
  Inflection point in cell viability: around 6.5 ng/mL
  Effect on growth of E. coli K12: challenges the growth

## [H]/N=C(/N)N[C@H]1[C@H](O)[C@@H](O)[C@H](O[C@@H]2O[C@@H](C)[C@](O)(C=O)[C@H]2O[C@@H]2O[C@@H](CO)[C@H](O)[C@@H](O)[C@@H]2NC)[C@@H](N/C(N)=N\[H])[C@@H]1O [Streptomycin]
[5]
  Ki: 6.66 ± 0.699 µM
[5]; Arg63Ala relative to WT
  ΔΔG (kcal/mol) Exp: 1.4 ± 0.1 kcal/mol
[5]; Arg63Ala, from Ki
  ΔG (kcal/mol) Exp: -7.1 ± 0.1 kcal/mol
[5]; HepI R63A in presence of inhibitor
  kcat: 0.198 ± 0.024 s⁻¹
[5]; HepI R63A vs WT
  Ki relative to WT: increased the Ki values an order of magnitude
[2]; 12.5 ng/mL streptomycin, relative to 0 ng/mL = 1
  Relative pixel density from cps band: 1.019
[2]; 15 ng/mL streptomycin
  Relative pixel density from cps band: 1.115
[2]; 17.5 ng/mL streptomycin
  Relative pixel density from cps band: 1.105
[2]; 20 ng/mL streptomycin
  Relative pixel density from cps band: 1.323
[2]; 22.5 ng/mL streptomycin
  Relative pixel density from cps band: 1.458
[2]; 25 ng/mL streptomycin
  Relative pixel density from cps band: 1.335
[2]; 27.5 ng/mL streptomycin
  Relative pixel density from cps band: 1.687
[2]; 30 ng/mL streptomycin
  Relative pixel density from cps band: 1.477
[2]; 32.5 ng/mL streptomycin
  Relative pixel density from cps band: 1.070
[2]; 35 ng/mL streptomycin
  Relative pixel density from cps band: 0.654
[3]
  kcat: 0.162 ± 0.008 s⁻¹
[3]; HepI WT
  Ki: 595 ± 90 nM
  Type of inhibition with ODLA: Non-competitive
  Type of inhibition against ADPH: non-competitive
  ΔG (kcal/mol) Exp: -8.5 ± 0.1 kcal/mol
[6]
  Ki: 7.89 ± 3.59 µM
[6]; Arg61Ala relative to WT
  ΔΔG (kcal/mol) Exp: 1.5 ± 0.2 kcal/mol
[6]; Arg61Ala, from Ki
  ΔG (kcal/mol) Exp: -7.0 ± 0.2 kcal/mol
[6]; HepI R61A in presence of inhibitor
  kcat: 0.142 ± 0.031 s⁻¹
[6]; HepI R61A vs WT
  Ki relative to WT: increased the Ki values an order of magnitude
[4]
  Inflection point in cell viability: 25 ng/mL
  Effect on growth of E. coli K12: challenges the growth

From paper PMC9068772, “Discovery of first-in-class nanomolar inhibitors of heptosyltransferase I reveals a new aminoglycoside target and potential alternative mechanism of action” (Scientific Reports, 2022)
